Measured values published in ChEMBL document CHEMBL4689842, “EUbOPEN Chemogenomics Library wave 1” (2021).

Tests used:
Type in all cases: toxicity, cell-based
Fibroblast = assay: Incucyte cell viability with human fibroblast; settings: 10 µM, compound concentration 10 uM
HEK-293T = assay: Incucyte cell viability with HEK293T; settings: human, 10 µM, compound concentration 10 uM
U2OS = assay: Incucyte cell viability with U2OS; settings: human, 10 µM, compound concentration 10 uM
[1] = 0 h, replicate number 1, timepoint 0 hours
[2] = 0 h, replicate number 2, timepoint 0 hours
[3] = 6 h, replicate number 1, timepoint 6 hours
[4] = 12 h, replicate number 1, timepoint 12 hours
[5] = 18 h, replicate number 1, timepoint 18 hours
[6] = 18 h, replicate number 2, timepoint 18 hours
[7] = 24 h, replicate number 1, timepoint 24 hours
[8] = 24 h, replicate number 2, timepoint 24 hours
[9] = 6 h, replicate number 2, timepoint 6 hours
[10] = 12 h, replicate number 2, timepoint 12 hours
Further: filed as whole numbers so only -1 and 0 and 1 occur.

SMILES | Growth Rate (Fibroblast; [1]) | Growth Rate (Fibroblast; [2]) | Growth Rate (Fibroblast; [3]) | Growth Rate (Fibroblast; [4]) | Growth Rate (Fibroblast; [5]) | Growth Rate (Fibroblast; [7]) | Growth Rate (HEK-293T; [1]) | Growth Rate (HEK-293T; [2]) | Growth Rate (U2OS; [1]) | Growth Rate (U2OS; [3]) | Growth Rate (U2OS; [9]) | Growth Rate (U2OS; [4]) | Growth Rate (U2OS; [5]) | Growth Rate (U2OS; [7]) | Growth Rate (U2OS; [8]) | Growth Rate (Fibroblast; [9]) | Growth Rate (HEK-293T; [3]) | Growth Rate (HEK-293T; [4]) | Growth Rate (HEK-293T; [5]) | Growth Rate (HEK-293T; [7]) | other results
CN1CCN(c2cnc3c(C4CCN(C(=O)c5ccc(OC(F)(F)F)cc5N)CC4)ncnc3c2)CC1 [BAY-885] | 1 | 0 | 0 | 1 | 0 | 0 | 0 | 1 | 0 | 0 | 1 | 0 | 0 | 0 | 1 | – | – | – | – | – | Growth Rate (Fibroblast; [6]): 1; Growth Rate (Fibroblast; [8]): 1; Growth Rate (HEK-293T; [8]): 1; Growth Rate (U2OS; [10]): 1; Growth Rate (U2OS; [6]): 1
O=C(Nc1nc2cccc(-c3ccc(CN4CCS(=O)(=O)CC4)cc3)n2n1)C1CC1 [FILGOTINIB] | 0 | – | 1 | 0 | 0 | 0 | 0 | – | 1 | 1 | 0 | 0 | 0 | 0 | – | 0 | 0 | 0 | 0 | 0 | –
CN(C)C(=O)c1cc2cnc(Nc3ccc(N4CCNCC4)cn3)nc2n1C1CCCC1 [RIBOCICLIB] | 0 | – | – | – | – | 1 | 0 | 1 | 0 | 0 | 1 | 0 | 0 | 0 | 1 | 0 | 1 | – | 1 | 1 | Growth Rate (Fibroblast; [10]): 0; Growth Rate (Fibroblast; [6]): 1; Growth Rate (HEK-293T; [9]): 0; Growth Rate (HEK-293T; [10]): 0; Growth Rate (HEK-293T; [6]): 0; Growth Rate (HEK-293T; [8]): 0; Growth Rate (U2OS; [10]): 1; Growth Rate (U2OS; [6]): 1
CC(C)NC(=O)c1ccc(C#Cc2ccncc2)cn1 | 0 | 1 | 1 | 0 | 1 | 1 | 0 | – | 0 | – | – | 1 | 1 | 0 | 1 | 0 | 0 | 0 | 0 | 0 | Growth Rate (Fibroblast; [10]): 1
Cc1nnn(-c2ccc(-c3ccc(C4(C(=O)O)CC4)cc3)cc2)c1NC(=O)O[C@H](C)c1ccccc1 | 0 | – | – | – | – | – | 0 | – | 0 | – | – | 1 | 1 | 1 | – | – | 0 | 0 | 0 | 0 | Growth Rate (HEK-293T; [10]): 1; Growth Rate (HEK-293T; [6]): 1
CN(C)[C@H]1CCN(c2cc(-c3ccccc3)nc3ccnn23)C1 [(S)-ZINC-3573] | 0 | 1 | 0 | 0 | 0 | 1 | 1 | 0 | – | 0 | – | 0 | 0 | 0 | 1 | – | 0 | 0 | 0 | 0 | Growth Rate (U2OS; [6]): 1
O=S(=O)(NC1CCC(c2cc(F)ccc2F)(S(=O)(=O)c2ccc(Cl)cc2)CC1)C(F)(F)F (stereo not given) [MRK-560] | 0 | – | – | 1 | 1 | 1 | 0 | 1 | 1 | 1 | 0 | 1 | 0 | 1 | 0 | 1 | 1 | 0 | 0 | 0 | Growth Rate (Fibroblast; [10]): 0; Growth Rate (Fibroblast; [8]): 0
NS(=O)(=O)c1c(Cl)ccc(NC(=O)Nc2cccc(Cl)c2Cl)c1O | 0 | 1 | – | 1 | 1 | 1 | 1 | 0 | 0 | – | – | 0 | 1 | 1 | 0 | 0 | 1 | 1 | 0 | 0 | Growth Rate (Fibroblast; [10]): 0; Growth Rate (Fibroblast; [6]): 0; Growth Rate (Fibroblast; [8]): 0; Growth Rate (HEK-293T; [6]): 1; Growth Rate (HEK-293T; [8]): 1
C=C(c1ccc(C(=O)O)cc1)c1cc2c(cc1C)C(C)(C)CCC2(C)C [BEXAROTENE] | 0 | – | – | 1 | 1 | 1 | 1 | 0 | 0 | – | – | 1 | 1 | 1 | – | – | 0 | 0 | 0 | 0 | Growth Rate (HEK-293T; [9]): 1; Growth Rate (HEK-293T; [10]): 1; Growth Rate (U2OS; [2]): -1
C[C@]12CCC(=O)C=C1CC[C@@H]1[C@@H]2[C@@H](O)C[C@]2(C=O)[C@@H](C(=O)CO)CC[C@@H]12 [ALDOSTERONE] | 0 | 1 | 0 | 1 | 1 | 1 | 0 | – | 0 | – | 1 | 1 | 1 | 1 | – | – | – | 1 | 1 | 1 | Growth Rate (Fibroblast; [10]): 0; Growth Rate (Fibroblast; [6]): 0; Growth Rate (HEK-293T; [9]): 1; Growth Rate (HEK-293T; [10]): 0
CC(C)(C)OC(=O)N1CCCC1CNC1CCC(c2cc(F)ccc2F)(S(=O)(=O)c2ccc(Cl)cc2)CC1 (stereo not given) [GSI-NC] | – | 0 | 0 | 0 | 0 | 0 | 0 | 1 | 0 | 0 | – | 0 | 0 | 0 | – | 1 | 0 | 1 | 1 | 1 | Growth Rate (HEK-293T; [10]): 0; Growth Rate (HEK-293T; [8]): 0
Cl.O=C(O)Cc1cccc(OCCCN(Cc2cccc(C(F)(F)F)c2Cl)CC(c2ccccc2)c2ccccc2)c1 | 0 | – | 1 | 1 | 1 | 0 | 0 | – | 0 | – | 0 | 0 | 0 | 1 | – | 0 | 1 | 1 | 0 | 0 | Growth Rate (Fibroblast; [10]): 0; Growth Rate (Fibroblast; [6]): 0; Growth Rate (HEK-293T; [10]): 0; Growth Rate (U2OS; [6]): 1
